The nature of series [1]: Study 1: porcine plasma profiles of tetracaine and meloxicam applied topically to the castration surgical site. It is filed as in vivo. On the procedure: Dose Calculation, Preparation & Administration: Study animals were dosed according to the Treatment Regime outlined in Table 4 below. No preparation of any of the IVPs was performed other than inversion of each container 2-3 times prior to treatment.
Blood Analysis: Blood samples were collected from allocated animals via anterior vena-caval puncture using 21G, 1.5″ needle attached to 10 mL syringes and transferred immediately into 5 mL lithium heparin blood tubes. Blood samples were processed for extraction of plasma on the day of collection, which for each sample was stored in duplicate, frozen (˜−18° C.). Replicate 1 plasma samples were forwarded frozen to a laboratory for tetracaine and meloxicam analyses after the conclusion of the animal phase.
Study animals were dosed according to the application rates detailed in Table 4. No preparation of any of the IVPs was required prior to dosing.
Castration was performed using a sterile scalpel as per the following process: • 1. Piglet to be gently restrained (for a minimum of 30 seconds prior to incision) in Kerble piglet cradle in order to expose the ano-genital region of the piglet. • 2. Only when piglet is settled, incise scrotum (including tunica) with one single transverse incision to expose and exteriorise each testis; • 3. Immediately apply treatment (40% total dose to each side) to coat the exposed spermatic cord and the cut skin edge. […] Wait 30 seconds; • 5. The testis may then be removed by severing the cord as per routine procedure. Remove each testis as per normal procedure. • 6. Apply the remaining 20% of the total dose evenly of the surface of the surgical wound.

The nature of series [2]: In-house trials of tetracaine applied directly to the open castration wound. It is filed as in vivo, piglets. Conditions: applied to open castration wound 20 seconds prior to severing cordal tissues, 1 ml/kg of 2% or 5% solution. The source says: Tetracaine is a rapid onset surface anaesthetic, that is rapidly metabolised by plasma-esterases, such that may induce high potency local effects with minimal systemic effects. […] Topical wound application formulations were thus developed to examine the potential for systemic NSAID analgesic drug (meloxicam) delivery via topical wound application, applied alone, or combined with topical local anaesthetic (tetracaine) to the castration wound in piglets. Topical wound application formulations were developed containing meloxicam alone, tetracaine alone and combinations of meloxicam and tetracaine to examine systemic absorption and clinical effects.

The nature of series [3]: Study 2: post-operative mechanical sensory testing of the wound site using Von-Frey filament testing (motor response scores). Type of series: in vivo, piglets. The following applies: versus placebo. On the procedure: (§1) Study 2: A follow-up study confirmed efficacy of meloxicam analgesic effects when applied to piglets via topical wound application either alone or in combination with tetracaine 2%. Piglets were treated with placebo, meloxicam 0.1%, tetracaine 2% or a combination of tetracaine 2% and meloxicam 1%, otherwise formulated as above, and examined for clinical efficacy via documentation of motor response scores to a) the procedure of castration, and b) pre- and post-operative mechanical sensory testing of the wound site using Von-Frey filament testing.

The nature of series [4]: Study 2: motor response scores to the procedure of castration. It is filed as in vivo, piglets. The following applies: during the procedure (castration), versus placebo, topical to open wound. As for the experimental part: as §1
The conditions of series [5]: male, pig, in vivo.

Several values for one entry are separate records, joined by “and”; a condition that tells them apart may be missing. Equal values may be shown once.

Take `Cc1cnc(NC(=O)C2=C(O)c3ccccc3S(=O)(=O)N2C)s1` [Meloxicam]: the “Meloxicam concentration in porcine plasma” value in series [1] (15 min post-treatment, individual piglets, topical to castration wound) was 144.8 ng/mL and 119.8 ng/mL and 81.8 ng/mL and 88.2 ng/mL; in series [1] (30 min post-treatment, individual piglets, topical to castration wound), 166.0 ng/mL and 94.6 ng/mL and 101.3 ng/mL and 104.8 ng/mL; in series [1] (1 hr post-treatment, individual piglets, topical to castration wound), 102.9 ng/mL and 118.0 ng/mL; in series [1] (2 hr post-treatment, individual piglets, topical to castration wound), 126.7 ng/mL and 238.9 ng/mL; in series [1] (4 hr post-treatment, individual piglets, topical to castration wound), 100.9 ng/mL and 458.7 ng/mL and 63.3 ng/mL and 230.0 ng/mL and 244.6 ng/mL and 113.2 ng/mL. The “Sustained plasma levels of meloxicam” value in series [1] (group level (FIG. 4)) fell in the range of 100 to 200 ng/mL. Besides, the concentration at 15 min in series [1] (male, pig, plasma, topical, 15 min post-treatment, individual piglets, topical to castration wound) turned out to be 86.9 ng/mL. The molecule further came in with a concentration at 30 min in series [1] (male, pig, plasma, topical, 30 min post-treatment, individual piglets, topical to castration wound) of 109 ng/mL. Moreover, the concentration at 1 hr in series [1] (male, pig, plasma, topical, 1 hr post-treatment, individual piglets, topical to castration wound) came out at 190 ng/mL. This molecule came in with a concentration at 2 hr in series [1] (male, pig, plasma, topical, 2 hr post-treatment, individual piglets, topical to castration wound) of 126 ng/mL. The “Time of peak plasma meloxicam level” value in series [1] (post-treatment, group level (FIGS. 4, 5)) turned out to be 4 h.
As for `CCCCNc1ccc(C(=O)OCCN(C)C)cc1` [Tetracaine], the “Pain during castration and in the first minutes and 1-2 hours following” value in series [2] is given as “effective to ameliorate pain”. Besides, the “Time of peak plasma tetracaine level” value in series [1] (male, pig, in vivo) amounted to 1 h. Also, the Motor response scores result in series [3] (1 minute following the procedure) was “significant reduction”; in series [3] (1 hour following the procedure), “anaesthetic effects were still evident”; in series [3] (12 hours following the procedure), “rebound hyperaesthesia”; in series [4] it was “significant reduction”.
On to `CCCCN1CCCCC1C(=O)Nc1c(C)cccc1C` (stereo not drawn) [bupivacaine], for which the “Period plasma levels remained at those levels” value in series [5] came to 24 h.
